The text below walks through data of US11345699B2, “Apoptosis signal-regulating kinase 1 inhibitors and methods of use thereof” (Enanta Pharmaceuticals, Inc., priority 2018, dated 2022).

pIC50: −log10 of the molar value.

Chain of ASK1 (Q99683 whole entry): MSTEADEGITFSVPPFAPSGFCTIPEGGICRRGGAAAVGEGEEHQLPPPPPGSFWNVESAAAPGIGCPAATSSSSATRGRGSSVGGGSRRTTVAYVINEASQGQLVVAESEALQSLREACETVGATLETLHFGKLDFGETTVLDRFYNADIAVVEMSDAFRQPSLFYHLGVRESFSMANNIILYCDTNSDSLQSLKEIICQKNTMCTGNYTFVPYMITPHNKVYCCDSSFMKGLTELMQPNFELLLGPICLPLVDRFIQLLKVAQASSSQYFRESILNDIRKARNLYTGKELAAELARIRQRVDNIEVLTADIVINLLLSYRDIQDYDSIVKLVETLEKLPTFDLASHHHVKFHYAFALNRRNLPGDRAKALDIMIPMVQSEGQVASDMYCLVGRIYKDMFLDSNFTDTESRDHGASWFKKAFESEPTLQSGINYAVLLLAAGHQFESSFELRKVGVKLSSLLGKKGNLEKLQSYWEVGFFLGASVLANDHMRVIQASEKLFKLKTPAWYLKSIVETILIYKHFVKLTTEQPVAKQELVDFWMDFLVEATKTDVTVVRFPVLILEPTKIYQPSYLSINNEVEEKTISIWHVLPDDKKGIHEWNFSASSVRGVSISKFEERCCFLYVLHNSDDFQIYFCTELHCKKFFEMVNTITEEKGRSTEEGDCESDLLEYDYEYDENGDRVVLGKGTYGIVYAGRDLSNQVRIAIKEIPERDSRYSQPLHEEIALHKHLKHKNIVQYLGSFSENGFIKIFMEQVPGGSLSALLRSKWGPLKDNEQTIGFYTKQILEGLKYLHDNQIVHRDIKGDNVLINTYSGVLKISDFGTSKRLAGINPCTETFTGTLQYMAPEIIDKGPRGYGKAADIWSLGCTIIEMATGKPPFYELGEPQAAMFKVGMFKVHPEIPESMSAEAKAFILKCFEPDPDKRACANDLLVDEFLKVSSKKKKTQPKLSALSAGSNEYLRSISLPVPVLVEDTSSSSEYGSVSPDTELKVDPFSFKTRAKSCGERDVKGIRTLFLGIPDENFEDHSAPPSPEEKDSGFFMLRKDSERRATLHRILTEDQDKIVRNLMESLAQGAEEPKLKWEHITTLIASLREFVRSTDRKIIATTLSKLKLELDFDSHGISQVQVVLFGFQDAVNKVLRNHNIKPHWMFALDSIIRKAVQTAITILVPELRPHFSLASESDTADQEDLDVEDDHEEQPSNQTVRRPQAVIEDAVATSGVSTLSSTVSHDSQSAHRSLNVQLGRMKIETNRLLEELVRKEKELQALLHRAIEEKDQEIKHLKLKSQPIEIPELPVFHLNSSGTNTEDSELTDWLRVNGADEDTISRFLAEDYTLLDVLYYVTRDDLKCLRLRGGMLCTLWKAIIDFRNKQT

This assay addresses ASK1 (Homo sapiens (Human), UniProt Q99683). The assay can be described thus: HTRF KinEASE Assay (TR-FRET), inhibition of ASK1. The assay is classed as biochemical. Conditions: ASK1 kinase, 100 μM ATP, 1 μM STK3 peptide substrate, compound 0 to 10 μM. As for the experimental part:
Assay HTRF® KinEASE™ Assay
ASK1 was purchased from Thermofisher (Catalogue #PV4011), ATP was purchased from Sigma (Catalogue #A7699), HTRF® KinEASE™ Assay System was obtained from Cisbio (Bedford, Mass.). ½ Area plate was purchased from Perkin Elmer (Catalogue ##6005560). HTRF® KinEASE™-STK is a generic method for measuring serine/threonine kinase activities using a time-resolved fluorescence resonance energy transfer (TR-FRET) immunoassay. The IC50 value for each compound was determined in the presence of compound (various concentration from 0 to 10 μM) and a fixed amount of ATP and peptide substrates. The test compound, 1 μM STK3 peptide substrate, and […] of ASK1 kinase are incubated with kinase reaction buffer containing 50 mM HEPES Ph 7.5, 0.01% BRIJ-35, 10 mM MgCl2, and 1 mM EGTA for 30 minutes. 100 μM ATP is added to start kinase reaction and incubated for 3 hours. The STK3-antibody labeled with Eu^3+-Cryptate and 125 nM streptavidin-XL665 are mixed in a single addition with stop reagents provided by the Cisbio kit used to stop the kinase reaction. Fluorescence is detected using an Envision Multilabeled 2014 reader from PerkinElmer. The Fluorescence is measured at 615 nm (Cryptate) and 665 nm (XL665) and a ratio of 665 nm/615 nm is calculated for each well. The resulting TR-FRET is proportional to the phosphorylation level. Staurosporine was used as the positive control. IC50 was determined by Xlfit 5.3.
By using above method, the inhibition of ASK1 was evaluated for the compounds of Formula (I). Example numbers correspond to those in Table 5.
(In general: Time-resolved FRET reads energy transfer from a long-lived donor to a nearby acceptor.)
One may read the pIC50 as the negative decadic logarithm of the IC50, by convention in mol/L. Compound `C[C@H](CO)n1nnnc1-c1cccc(NC(=O)c2cc3c(cn2)CCN(C(=O)N2CCOCC2)C3)n1` [Example 139] had a pIC50 of 8.00 to 8.90.

`COc1cc2c(cc1C(=O)Nc1cccc(-c3nncn3C(C)C)n1)CN(C(=O)OC(C)(C)C)CC2` [Example 5, tert-butyl 7-((6-(4-isopropyl-4H-1,2,4-triazol-3-yl)pyridin-2-yl)carbamoyl)-6-methoxy-3,4-dihydroisoquinoline-2(1H)-carboxylate] had a pIC50 of 7.00 to 8.00.

Compound `COc1cc2c(cc1C(=O)Nc1cccc(-c3nnnn3[C@H](C)CO)n1)CN(C(=O)N1CCOCC1)CC2` [Example 131] had a pIC50 above 8.90.

On to `C[C@H](CO)n1nnnc1-c1cccc(NC(=O)c2cc3c(cc2F)CCN(C(=O)NC2CC2)C3)n1` [Example 134], for which the pIC50 is 8.00 to 8.90.

Take `C[C@H](CO)n1nnnc1-c1cccc(NC(=O)c2cc3c(cn2)CCN(C(=O)C(C)(C)CO)C3)n1` [Example 99]: the pIC50 is 7.00 to 8.00.

As to `C[C@H](CO)n1nnnc1-c1cccc(NC(=O)c2cc3c(cc2F)CCN(C(=O)c2ccccn2)C3)n1` [Example 133], the pIC50 is 7.00 to 8.00.

`COc1cc2c(cc1C(=O)Nc1cccc(-c3nnnn3[C@H](C)CO)n1)CN(C(=O)[C@](C)(O)C(F)(F)F)CC2` [Example 105] gave a pIC50 above 8.90.

`COc1cc2c(cc1C(=O)Nc1cccc(-c3nnnn3[C@H](C)CO)n1)CN(c1ncns1)CC2` [Example 153] had a pIC50 of 8.00 to 8.90.

For the compound `CCNS(=O)(=O)N1CCc2cc(F)c(C(=O)Nc3cccc(-c4nnnn4[C@H](C)CO)n3)cc2C1` [Example 118], the pIC50 was 8.00 to 8.90.

With `COc1cc2c(cc1C(=O)Nc1cccc(-c3nnnn3[C@H](C)CO)n1)CN(C(=O)c1cnn(C3CC3)c1)CC2` [Example 97], the negative logarithm of the IC50 (pIC50) was above 8.90.

The compound `C[C@H](CO)n1nnnc1-c1cccc(NC(=O)c2cc3c(cc2F)CCN(C2CC2)C3)n1` [Example 120] had a pIC50 of 7.00 to 8.00.

`C[C@H](CO)n1nnnc1-c1cccc(NC(=O)c2cc3c(cn2)CCN(C(=O)c2cn(C4CC4)cn2)C3)n1` [Example 106]: the pIC50 was 8.00 to 8.90.

As for `COc1cc2c(cc1C(=O)Nc1cccc(-c3nnnn3[C@H](C)CO)n1)CN(CC(=O)N1CCCC1)CC2` [Example 132], the pIC50 was above 8.90.

`COc1cc2c(cc1C(=O)Nc1cccc(-c3nncn3C(C)C)n1)CN(C(=O)C(C)(C)O)CC2` [Example 129] gave a pIC50 above 8.90.

Compound `COc1cc2c(cc1C(=O)Nc1cccc(-c3nnnn3[C@H](C)CO)n1)CN(c1cccnc1)CC2` [Example 150, (R)—N-(6-(1-(1-hydroxypropan-2-yl)-1H-tetrazol-5-yl)pyridin-2-yl)-6-methoxy-2-(pyridin-3-yl)-1,2,3,4-tetrahydroisoquinoline-7-carboxamide] showed a pIC50 above 8.90.

In the case of `C[C@H](CO)n1nnnc1-c1cccc(NC(=O)c2cc3c(cc2F)CCN(S(=O)(=O)NC2CC2)C3)n1` [Example 117], the pIC50 was 7.00 to 8.00.

`C[C@H](CO)n1nnnc1-c1cccc(NC(=O)c2cc3c(cn2)CCN(c2ncccn2)C3)n1` [Example 108, (R)—N-(6-(1-(1-hydroxypropan-2-yl)-1H-tetrazol-5-yl)pyridin-2-yl)-6-(pyrimidin-2-yl)-5,6,7,8-tetrahydro-2,6-naphthyridine-3-carboxamide]: the pIC50 was 8.00 to 8.90.

As to `COc1cc2c(cc1C(=O)Nc1cccc(-c3nnnn3[C@H](C)CO)n1)CN(C(=O)OCC(C)(C)O)CC2` [Example 130, 2-hydroxy-2-methylpropyl (R)-7-((6-(1-(1-hydroxypropan-2-yl)-1H-tetrazol-5-yl)pyridin-2-yl)carbamoyl)-6-methoxy-3,4-dihydroisoquinoline-2(1H)-carboxylate], the negative-log IC50 (pIC50) was above 8.90.

`CONC(=O)N1CCc2cc(OC)c(C(=O)Nc3cccc(-c4nnnn4[C@H](C)CO)n3)cc2C1` [Example 147] showed a pIC50 above 8.90.

`CCOC(=O)N1CCc2cc(F)c(C(=O)Nc3cccc(-c4nncn4[C@@H](C)CF)n3)cc2C1` [Example 107] gave a pIC50 of 8.00 to 8.90.

As for `C[C@H](CO)n1nnnc1-c1cccc(NC(=O)c2cc3c(cn2)CCN(C(=O)C(C)(C)O)C3)n1` [Example 140], the pIC50 is 8.00 to 8.90.

Compound `COc1cc2c(cc1C(=O)Nc1cccc(-c3nnnn3[C@H](C)CO)n1)CN(C(=O)c1cnccn1)CC2` [Example 112] gave a pIC50 above 8.90.

For the compound `CC(C)CN1CCc2cnc(C(=O)Nc3cccc(-c4nncn4C(C)C)n3)cc2C1` [Example 3, 6-isobutyl-N-(6-(4-isopropyl-4H-1,2,4-triazol-3-yl)pyridin-2-yl)-5,6,7,8-tetrahydro-2,6-naphthyridine-3-carboxamide], the pIC50 was 7.00 to 8.00.

For `C[C@H](CO)n1nnnc1-c1cccc(NC(=O)c2cc3c(cc2F)CCN(Cc2ccc(F)cc2)C3)n1` [Example 121], the pIC50 was 7.00 to 8.00.

`COc1cc2c(cc1C(=O)Nc1cccc(-c3nnnn3[C@H](C)CO)n1)CN(C(=O)CN1CCOC1=O)CC2` [Example 149] showed a pIC50 above 8.90.

The compound `C[C@H](CO)n1nnnc1-c1cccc(NC(=O)c2cc3c(cn2)CCN(C(=O)c2cnn(C4CC4)c2)C3)n1` [Example 100] gave a negative-log IC50 (pIC50) of 8.00 to 8.90.

As to `C[C@H](CO)n1nnnc1-c1cccc(NC(=O)c2cc3c(cc2F)CCN(c2ncccn2)C3)n1` [Example 123], the pIC50 is 8.00 to 8.90.

Consider `C[C@H](CO)n1cnnc1-c1cccc(NC(=O)c2cc3c(cn2)CCN(S(=O)(=O)C2CC2)C3)n1` [Example 38, (R)-6-(cyclopropylsulfonyl)-N-(6-(4-(1-hydroxypropan-2-yl)-4H-1,2,4-triazol-3-yl)pyridin-2-yl)-5,6,7,8-tetrahydro-2,6-naphthyridine-3-carboxamide], for which the pIC50 was 7.00 to 8.00.

On to `COc1cc2c(cc1C(=O)Nc1cccc(-c3nnnn3[C@H](C)CO)n1)CN(c1ncccn1)CC2` [Example 84, (R)-N-(6-(1-(1-hydroxypropan-2-yl)-1H-tetrazol-5-yl)pyridin-2-yl)-6-methoxy-2-(pyrimidin-2-yl)-1,2,3,4-tetrahydroisoquinoline-7-carboxamide], for which the negative-log IC50 (pIC50) is 8.00 to 8.90.

`COCCC(=O)N1CCc2cc(OC)c(C(=O)Nc3cccc(-c4nnnn4[C@H](C)CO)n3)cc2C1` [Example 124] gave a pIC50 above 8.90.

In turn, `COc1cc2c(cc1C(=O)Nc1cccc(-c3nnnn3[C@H](C)CO)n1)CN(C(=O)N1CC[C@@H](O)C1)CC2` [Example 144, N-(6-(1-((R)-1-hydroxypropan-2-yl)-1H-tetrazol-5-yl)pyridin-2-yl)-2-((R)-3-hydroxypyrrolidine-1-carbonyl)-6-methoxy-1,2,3,4-tetrahydroisoquinoline-7-carboxamide] gave a pIC50 above 8.90.

With `CC(C)n1cnnc1-c1cccc(NC(=O)c2cc3c(cc2F)CCN(C(=O)OCC(F)(F)F)C3)n1` [Example 21, 2,2,2-trifluoroethyl 6-fluoro-7-((6-(4-isopropyl-4H-1,2,4-triazol-3-yl)pyridin-2-yl)carbamoyl)-3,4-dihydroisoquinoline-2(1H)-carboxylate], the pIC50 was 8.00 to 8.90.

Take `COc1cc2c(cc1C(=O)Nc1cccc(-c3nncn3C(C)C)n1)CN(C(=O)C(C)(C)CO)CC2` [Example 126, 2-(3-hydroxy-2,2-dimethylpropanoyl)-N-(6-(4-isopropyl-4H-1,2,4-triazol-3-yl)pyridin-2-yl)-6-methoxy-1,2,3,4-tetrahydroisoquinoline-7-carboxamide]: the pIC50 is above 8.90.

The compound `CCOC(=O)N1CCc2cnc(C(=O)Nc3cccc(-c4nnnn4[C@@H]4CCC[C@@H]4O)n3)cc2C1` [Example 146] showed a negative logarithm of the IC50 (pIC50) of 7.00 to 8.00.

As for `COc1cc2c(cc1C(=O)Nc1cccc(-c3nncn3C(C)C)n1)CN(C(=O)C[C@H](C)O)CC2` [Example 127], the pIC50 is above 8.90.

In turn, `COCCC(=O)N1CCc2cc(OC)c(C(=O)Nc3cccc(-c4nncn4C(C)C)n3)cc2C1` [Example 125] showed a pIC50 above 8.90.

Compound `CC(C)n1cnnc1-c1cccc(NC(=O)c2cc3c(cn2)CCN(S(=O)(=O)N(C)C)C3)n1` [Example 2, 6-(N,N-dimethylsulfamoyl)-N-(6-(4-isopropyl-4H-1,2,4-triazol-3-yl)pyridin-2-yl)-5,6,7,8-tetrahydro-2,6-naphthyridine-3-carboxamide] gave a pIC50 of 7.00 to 8.00.

Compound `C[C@H](CO)n1nnnc1-c1cccc(NC(=O)c2cc3c(cc2F)CCN(S(=O)(=O)Nc2ccc(F)cc2)C3)n1` [Example 136] gave a pIC50 of 7.00 to 8.00.

For `COc1cc2c(cc1C(=O)Nc1cccc(-c3nnnn3[C@H](C)CO)n1)CN(C(=O)[C@@H]1CCOC1)CC2` [Example 142], the pIC50 is above 8.90.

In turn, `C[C@H](CO)n1nnnc1-c1cccc(NC(=O)c2cc3c(cc2F)CCN(c2ccccn2)C3)n1` [Example 122] showed a pIC50 of 8.00 to 8.90.

Turning to `COc1cc2c(cc1C(=O)Nc1cccc(-c3nnnn3[C@H](C)CO)n1)CN(C(=O)c1ccccn1)CC2` [Example 101], the pIC50 is above 8.90.

Regarding `COc1cc2c(cc1C(=O)Nc1cccc(-c3nncn3C(C)C)n1)CN(c1cncnc1)CC2` [Example 151, N-(6-(4-isopropyl-4H-1,2,4-triazol-3-yl)pyridin-2-yl)-6-methoxy-2-(pyrimidin-5-yl)-1,2,3,4-tetrahydroisoquinoline-7-carboxamide], the pIC50 is above 8.90.
